# Assay results: patent US12583851B2, “Heteroaryl-substituted pyrazine derivatives as pesticides” (Elanco Animal Health GmbH, priority 2019, dated 2026)
# Tests used:
# Assay type in all cases: in vivo
# [1] = tested on: fall armyworm larvae (Spodoptera frugiperda); assay: Spodoptera frugiperda spray test; settings: 168 h, maize leaf sections, after 7 days
# Procedure: Spodoptera fruaiperda—Spray Test
# Solvent: 78.0 parts by weight acetone • 1.5 parts by weight dimethylformamide
# (§1) Emulsifier: alkylarylpolyglycol ether
# (§2) To produce a suitable preparation of active compound, 1 part by weight of active compound is mixed with the stated amount of solvents and is diluted with water, containing an emulsifier concentration of 1000 ppm, to the desired concentration. Further test concentrations are prepared by dilution with emulsifier containing water.
# Maize (Zea mays) leaf sections are sprayed with a preparation of the active ingredient of the desired concentration. Once dry, the leaf sections are infested with fall armyworm larvae (Spodoptera frugiperda).
# After 7 days mortality in % is determined. 100% means all caterpillars have been killed and 0% means none of the caterpillars have been killed.
# [2] = tested on: larvae of the banded cucumber beetle (Diabrotica balteata); assay: Diabrotica balteata spray test; settings: 168 h, after 7 days, read-out: efficacy (seedling growth); for pest or weed control at 32 µg/disc, 100 g/ha: 100 g/ha (=32 μg/well); for pest or weed control at 6.4 µg/disc, 20 g/ha: 20 g/ha (=6.4 μg/well)
# Procedure: Diabrotica balteata—Spray Test
# Solvent: 78.0 parts by weight of acetone • • 1.5 parts by weight of dimethylformamide
# as §1
# as §2, with “solvent,” for “solvents”, “and the concentrate” for “and”
# Soaked wheat seeds (Triticum aestivum) are placed in a multiple well plate filled with agar and some water and are incubated for 1 day to germinate (5 seeds per well). The germinated wheat seeds are sprayed with a test solution containing the desired concentration of the active ingredient. Afterwards each unit is infected with 10-20 larvae of the banded cucumber beetle (Diabrotica balteata).
# After 7 days efficacy in % is determined. 100% means all the seedlings have grown up like in the untreated, uninfected control; 0% means none of the seedlings have grown.
# [3] = tested on: Rhipicephalus (Boophilus) microplus larvae (strain Parkhurst, resistant against synthetic pyrethroids); assay: Rhipicephalus (Boophilus) microplus in-vitro contact test, larval cattle tick; settings: after 48 hours, read-out: efficacy (larvae dead or moribund); for pest or weed control at 1 µg/cm2, 100 g/ha: 1 μg/cm^2 (=100 g/ha); for pest or weed control at 5 µg/cm2, 500 g/ha: 5 μg/cm^2 (=500 g/ha)
# Procedure: Rhipicephalus (Boophilus) microplus—In-Vitro Contact Tests Larval Cattle Tick (Strain Parkhurst, Resistant Against Synthetic Pyrethroids)
# 9 mg compound is solved in 1 mL acetone and diluted with acetone to the desired concentration. […] the test solution is filled in 25 mL glass test tubes and homogeneously distributed on the inner walls by rotation and tilting on a shaking device (2 h at 30 rpm). With a compound concentration of 900 ppm, an inner surface of 44.7 cm^2 and a homogeneous distribution, a dose of 5 μg/cm^2 is achieved.
# After the solvent has evaporated, each test tube is filled with 20-50 cattle tick larvae (Rhipicephalus microplus), closed with a perforated lid and incubated in a horizontal position at 85% relative humidity and 27° C. in an incubator. After 48 hours efficacy is determined. The larvae are patted on the ground of the tubes and negative geotactic behaviour is recorded.
# An efficacy of 100% means all larvae are dead or moribund; 0% means no larvae are dead or moribund.
structure (smiles),measurement,setting,value
"CCN(C)C(=O)c1cnc(-c2ncc(C)nc2C(C)NC(=O)c2cc(C(F)(F)F)cc(C(F)(F)F)c2)s1 (racemic) [Example I-148, (rac)-2-(3-{1-[3,5-Bis(trifluoromethyl)benzamido]ethyl}-5-methylpyrazin-2-yl)-N-ethyl-N-methyl-1,3-thiazole-5-carboxamide]",mortality at 100 g/ha,[1],100%
"CC(NC(=O)c1cc(Cl)cc(Br)c1)c1nccnc1-c1ccc(C(F)(F)F)cn1 (racemic) [Example I-43, (rac)-3-Bromo-5-chloro-N-[1-{3-[5-(trifluoromethyl)pyridin-2-yl]pyrazin-2-yl}ethyl]benzamide]","pest or weed control at 32 µg/disc, 100 g/ha",[2],80%
"Cc1cnc(-c2ncc(C(=O)N(C)CC3CC3)s2)c(C(C)NC(=O)c2cc(C(F)(F)F)cc(C(F)(F)F)c2)n1 (racemic) [Example I-73, (rac)-2-(3-{1-[3,5-Bis(trifluoromethyl)benzamido]ethyl}-5-methylpyrazin-2-yl)-N-(cyclopropylmethyl)-N-methyl-1,3-thiazole-5-carboxamide]",mortality at 100 g/ha,[1],100%
"CC(NC(=O)c1cc(Cl)cc(C#N)c1)c1nccnc1-n1cc(C#N)cn1 (racemic) [Example I-121, (rac)-3-Chloro-5-cyano-N-{1-[3-(4-cyano-1H-pyrazol-1-yl)pyrazin-2-yl]ethyl}benzamide]","pest or weed control at 32 µg/disc, 100 g/ha",[2],100%
"CC(NC(=O)c1cc(Cl)cc(C#N)c1)c1nccnc1-c1nccs1 (racemic) [Example I-57, (rac)-3-Chloro-5-cyano-N-{1-[3-(1,3-thiazol-2-yl)pyrazin-2-yl]ethyl}benzamide]","pest or weed control at 6.4 µg/disc, 20 g/ha",[2],80%
"CC(NC(=O)c1cc(Cl)cc(OC(F)(F)F)c1)c1nccnc1-c1ncc(C(=O)N2CCOCC2)s1 (racemic) [Example I-60, (rac)-3-Chloro-N-[1-{3-[5-(morpholine-4-carbonyl)-1,3-thiazol-2-yl]pyrazin-2-yl}ethyl]-5-(trifluoromethoxy)benzamide]",mortality at 100 g/ha,[1],83%
"Cc1cnc(C(C)NC(=O)c2cc(C(F)(F)F)cc(C(F)(F)F)c2)c(-c2ncc(C(=O)N3C[C@@H](C)O[C@@H](C)C3)s2)n1 (mixture of isomers) [Example I-126, (rac)-N-[1-(3-{5-[cis-2,6-Dimethylmorpholine-4-carbonyl]-1,3-thiazol-2-yl}-5-methylpyrazin-2-yl)ethyl]-3,5-bis(trifluoromethyl)benzamide]","pest or weed control at 32 µg/disc, 100 g/ha",[2],100%
same,"pest or weed control at 1 µg/cm2, 100 g/ha",[3],100%
same,"pest or weed control at 5 µg/cm2, 500 g/ha",[3],100%
"CC(NC(=O)c1cc(Cl)cc(OC(F)(F)F)c1)c1nccnc1-n1cc(C#N)cn1 (racemic) [Example I-104, (rac)-3-Chloro-N-{1-[3-(4-cyano-1H-pyrazol-1-yl)pyrazin-2-yl]ethyl}-5-(trifluoromethoxy)benzamide]","pest or weed control at 6.4 µg/disc, 20 g/ha",[2],100%
same,"pest or weed control at 32 µg/disc, 100 g/ha",[2],100%
"CC(NC(=O)c1cc(Cl)cc(S(=O)(=O)C2CC2)c1)c1nccnc1-n1cc(C#N)cn1 (racemic) [Example I-101, (rac)-3-Chloro-N-{1-[3-(4-cyano-1H-pyrazol-1-yl)pyrazin-2-yl]ethyl}-5-(cyclopropanesulfonyl)benzamide]",mortality at 100 g/ha,[1],100%
"CC(NC(=O)c1cc(C(F)(F)F)cc(C(F)(F)F)c1)c1nccnc1-c1ncc(C(=O)N2CCC[Si](C)(C)C2)s1 (racemic) [Example I-70, (rac)-N-[1-{3-[5-(3,3-Dimethyl-1,3-azasilinane-1-carbonyl)-1,3-thiazol-2-yl]pyrazin-2-yl}ethyl]-3,5-bis(trifluoromethyl)benzamide]","pest or weed control at 32 µg/disc, 100 g/ha",[2],100%
"CC(NC(=O)c1cc(C(F)(F)F)cc(C(F)(F)F)c1)c1nccnc1-c1ccc(C(F)(F)F)cn1 (racemic) [Example I-45, (rac)-3,5-Bis(trifluoromethyl)-N-[1-{3-[5-(trifluoromethyl)pyridin-2-yl]pyrazin-2-yl}ethyl]benzamide]",mortality at 100 g/ha,[1],100%
"CC(NC(=O)c1cc(Br)cc(OC(F)(F)F)c1)c1nccnc1-c1ccc(C(F)(F)F)cn1 (racemic) [Example I-44, (rac)-3-Bromo-5-(trifluoromethoxy)-N-[1-{3-[5-(trifluoromethyl)pyridin-2-yl]pyrazin-2-yl}ethyl]benzamide]","pest or weed control at 32 µg/disc, 100 g/ha",[2],100%
"CC(NC(=O)c1cc(Br)cc(I)c1)c1nccnc1-n1cc(C#N)cn1 (racemic) [Example I-112, (rac)-3-Bromo-N-{1-[3-(4-cyano-1H-pyrazol-1-yl)pyrazin-2-yl]ethyl}-5-iodobenzamide]","pest or weed control at 32 µg/disc, 100 g/ha",[2],100%
COc1ccc(-c2nccnc2C(C)NC(=O)c2cc(C(F)(F)F)cc(C(F)(F)F)c2)nc1 (stereo not shown) [Example I-26],"pest or weed control at 6.4 µg/disc, 20 g/ha",[2],100%
same,"pest or weed control at 32 µg/disc, 100 g/ha",[2],100%
same,"pest or weed control at 5 µg/cm2, 500 g/ha",[3],90%
"CC(NC(=O)c1cc(C(F)(F)F)cc(C(F)(F)F)c1)c1nccnc1-c1ccc(C(=O)N2CCCC2)cn1 (racemic) [Example I-37, (rac)-N-[1-{3-[5-(Pyrrolidine-1-carbonyl)pyridin-2-yl]pyrazin-2-yl}ethyl]-3,5-bis(trifluoromethyl)benzamide]","pest or weed control at 1 µg/cm2, 100 g/ha",[3],100%
same,"pest or weed control at 5 µg/cm2, 500 g/ha",[3],100%
"CC(NC(=O)c1cncc(C(C)(C)C)c1)c1nccnc1-c1nccs1 (racemic) [Example I-6, (rac)-5-(tert-Butyl)-N-(1-(3-(thiazol-2-yl)pyrazin-2-yl)ethyl)nicotinamide]","pest or weed control at 1 µg/cm2, 100 g/ha",[3],80%
same,"pest or weed control at 5 µg/cm2, 500 g/ha",[3],80%
"CC(NC(=O)c1cc(C(F)(F)F)cc(C(F)(F)F)c1)c1nccnc1-n1cc(Cl)cn1 (racemic) [Example I-96, N-{(rac)-1-[3-(4-Chloro-1H-pyrazol-1-yl)pyrazin-2-yl]ethyl}-3,5-bis(trifluoromethyl)benzamide]","pest or weed control at 6.4 µg/disc, 20 g/ha",[2],100%
same,"pest or weed control at 32 µg/disc, 100 g/ha",[2],100%
"CC(NC(=O)c1cc(C(F)(F)F)cc(C(F)(F)F)c1)c1nccnc1-c1ncc(C(=O)N2CCCC2)s1 (racemic) [Example I-71, (rac)-N-[1-{3-[5-(Pyrrolidine-1-carbonyl)-1,3-thiazol-2-yl]pyrazin-2-yl}ethyl]-3,5-bis(trifluoromethyl)benzamide]","pest or weed control at 6.4 µg/disc, 20 g/ha",[2],100%
same,"pest or weed control at 32 µg/disc, 100 g/ha",[2],100%
COc1ccc(-c2nccnc2C(C)NC(=O)c2cc(Cl)cc(C(F)(F)F)c2)nc1 (stereo not shown) [Example I-29],"pest or weed control at 6.4 µg/disc, 20 g/ha",[2],100%
same,"pest or weed control at 32 µg/disc, 100 g/ha",[2],100%
same,"pest or weed control at 5 µg/cm2, 500 g/ha",[3],90%
"Cc1cnc(-c2ncc(C(=O)N3C[C@@H](C)O[C@@H](C)C3)s2)c(C(C)NC(=O)c2cc(C(F)(F)F)cc(C(F)(F)F)c2)n1 (mixture of isomers) [Example I-127, (rac)-N-[1-(3-{5-[cis-2,6-dimethylmorpholine-4-carbonyl]-1,3-thiazol-2-yl}-6-methylpyrazin-2-yl)ethyl]-3,5-bis(trifluoromethyl)benzamide]","pest or weed control at 1 µg/cm2, 100 g/ha",[3],100%
same,"pest or weed control at 5 µg/cm2, 500 g/ha",[3],100%
CC(NC(=O)c1cc(Cl)cc(C#N)c1)c1nccnc1-c1ccccn1 (stereo not shown) [Example I-18],"pest or weed control at 32 µg/disc, 100 g/ha",[2],100%
"CC(NC(=O)c1cc(Br)cc(OC(F)(F)F)c1)c1nccnc1-n1cc(Cl)cn1 (racemic) [Example I-97, (rac)-3-Bromo-N-{1-[3-(4-chloro-1H-pyrazol-1-yl)pyrazin-2-yl]ethyl}-5-(trifluoromethoxy)benzamide]","pest or weed control at 32 µg/disc, 100 g/ha",[2],100%
"CC(NC(=O)c1cc(Cl)cc(C#N)c1)c1nccnc1-c1ccc(C(F)(F)F)cn1 (racemic) [Example I-40, (rac)-3-Chloro-5-cyano-N-[1-{3-[5-(trifluoromethyl)pyridin-2-yl]pyrazin-2-yl}ethyl]benzamide]","pest or weed control at 32 µg/disc, 100 g/ha",[2],100%
"CC(NC(=O)c1cc(C(F)(F)F)cc(C(F)(F)F)c1)c1nccnc1-n1cc(C(=O)N2CCCC2)cn1 (racemic) [Example I-91, N-[(rac)-1-{3-[4-(Pyrrolidine-1-carbonyl)-1H-pyrazol-1-yl]pyrazin-2-yl}ethyl]-3,5-bis(trifluoromethyl)benzamide]","pest or weed control at 1 µg/cm2, 100 g/ha",[3],100%
same,"pest or weed control at 5 µg/cm2, 500 g/ha",[3],100%
